Measured values: patent US9351492B2, “Anti-biofilm compositions and methods for using” (priority 2010, dated 2016)

Columns and labels:
[1] = tested on: Staphylococcus aureus; test: MIC, CLSI broth microdilution (growth inhibition); type: cell-based; conditions: doses 25-2000 μM
Experimental: (§1) For all assays, overnight cultures grown in the appropriate medium were used to inoculate fresh medium at an initial cell density of 5×10^5 colony-forming units (CFU) per ml. Cell density was confirmed by colony count of aliquots taken immediately following inoculation of the test strain.
Briefly, test strains were inoculated into 0.1 ml CAMHB containing 220D-F2 at concentrations ranging from 0.138-4 mg/ml (0.138-4% excipient in solution). For the MIC, optical density (OD600) was assessed immediately after inoculation and again after 18 hrs using a Biotek Synergy II microplate reader. Corrections for extract color, which can alter the OD output, were done as previously described (Quave et al., 2008, supra). […] The MBC was determined by taking colony counts of aliquots taken from each well after 24 hrs and it was defined as the lowest concentration at which the initial density of viable cells was reduced by ≧90% (for MBC90) or ≧50% (for MBC50) by comparison to the untreated control. […] For these experiments, 10 ml cultures were grown at 37° C. in 25 ml Erlenmeyer flasks in BM with constant shaking (200 rpm).
(§2) Ten commercially available phytochemical constituents reported in the literature to have been isolated from R. ulmifolius (Table 4) were purchased and examined for their prophylactic efficacy in the prevention of biofilm formation using a static microtiter plate biofilm assay. Ferulic acid, kaempferol, ursolic acid, quercetin dehydrate, caffeic acid, ellagic acid, and oleanolic acid were purchased from MP BioMedicals (Solon, Ohio, USA); quercetin-3-O-glucuronide and tiliroside from Chromadex (Irvine, Calif., USA); and gallic acid from Acros Organics (NJ, USA). Compounds were tested for growth and biofilm inhibitory activity at doses ranging from 25-2000 μM. To determine the minimum inhibitory concentration (MIC) for each fraction, strains of S. aureus were grown in 37° C. in cation adjusted Muller-Hinton broth (CAMHB). MIC and MBC were determined following Clinical and Laboratory Standards Institute […] broth microdilution guidelines. Briefly, strains were inoculated into 0.1 ml CAMBH containing varying concentrations of the compound. For MIC, optical density (OD600) was assessed immediately after inoculation and again after 18 hours using Biotek Synergy II microplate reader. The MIC was defined as the lowest concentration that inhibited growth to a level greater than or equal to 90% (for MIC90) or greater than or equal to 50% (for MIC50) by comparison to untreated cultures.

[2] = tested on: Staphylococcus aureus; type: cell-based; conditions: for Biofilm Formation MBIC50 / Biofilm Formation MBIC90: doses 25-2000 μM
Experimental: as §1
Biofilm formation was assessed using a microtiter plate assay as previously described (Beenken et al., 2003, Infection and Immunity 71:4206-11) except that 2-fold serial dilutions (0.0125-0.4 mg/ml, 0.0125-0.4% excipient in solution) of 220D-F2 were included in the BM. Controls for each experiment were the wild-type strain and its isogenic sarA mutant assayed in the absence of 220D-F2. The minimum biofilm inhibiting concentration (MBIC) was defined as the lowest concentration at which 220D-F2 inhibited biofilm formation to a level ≧90% (for MBIC90) or ≧50% (for MBIC50) than that observed with the parent strain in the absence of 220D-F2. […]
as §2

[3] = tested on: UAMS-1; test: in vitro catheter assay, established biofilm; type: cell-based, Staphylococcus aureus; conditions: catheters colonized without extract; 220D-F2 0.2 mg/ml, daptomycin 10 μg/ml (10× breakpoint MIC)
Experimental: UAMS-1 was grown on 1 cm catheter segments as previously described (Weiss et al., 2009b, Antimicrobial Agents and Chemotherapy 53:2475-2482). After 24 hrs, the BM medium was replaced with BM medium containing 220D-F2 (0.2 mg/ml) and/or daptomycin. […] The medium was replaced in its entirety at 24 hr intervals for 7 days. The therapeutic response of UAMS-1 to daptomycin in the presence of 220D-F2 was assessed by comparison to UAMS-929 grown in the absence of 220D-F2 but exposed to daptomycin as previously described (Weiss et al., 2009a, 2009b, supra). […] After each 24 h interval, catheters were removed from each treatment group and rinsed with PBS before removing bacteria for plate counts as previously described (Weiss et al., 2009a, 2009b, supra).
This assay was also used to assess the prophylactic activity of 220D-F2. In this case, the test compounds were added to the BM at the time of inoculation rather than after a 24 hr colonization period. After 24 hr incubation in the presence of 220D-F2, the catheters were processed for plate counts as described above.
Catheters were colonized with UAMS-1 in the absence of any extract. […] The antibiotics tested were daptomycin, clindamycin, vancomycin, and oxacillin.

[4] = tested on: Staphylococcus aureus; conditions: Durig et al. 2010; cited from earlier work

Molecule	Growth MBIC50 [1] [µM]	Growth MBIC90 [1] [µM]	Biofilm Formation MBIC50 [2] [µM]	Biofilm Formation MBIC90 [2] [µM]	average colony counts at day 7 [3]	anti-biofilm activity at doses well below any growth inhibitory effects ([2]; among 10 phytochemicals)	biofilm inhibition of S. aureus, previous studies [4]
O=C(/C=C/c1ccc(O)cc1)OC[C@H]1O[C@@H](Oc2c(-c3ccc(O)cc3)oc3cc(O)cc(O)c3c2=O)[C@H](O)[C@@H](O)[C@@H]1O [Tiliroside]	>2000	>2000	>2000	>2000	–	–	–
CCCCCCCCCC(=O)N[C@@H](Cc1c[nH]c2ccccc12)C(=O)N[C@H](CC(N)=O)C(=O)N[C@@H](CC(=O)O)C(=O)N[C@@H]1C(=O)NCC(=O)N[C@@H](CCCN)C(=O)N[C@@H](CC(=O)O)C(=O)N[C@H](C)C(=O)N[C@@H](CC(=O)O)C(=O)NCC(=O)N[C@H](CO)C(=O)N[C@@H]([C@H](C)CC(=O)O)C(=O)N[C@@H](CC(=O)c2ccccc2N)C(=O)O[C@@H]1C [daptomycin]	–	–	–	–	1.01×10^7 CFU/catheter	–	–
O=c1c(O)c(-c2ccc(O)c(O)c2)oc2cc(O)cc(O)c12 [Quercetin Dihydrate]	1720 ± 20	1903 ± 29	543 ± 21	1987 ± 21	–	–	–
O=C(O)c1cc(O)c(O)c(O)c1 [Gallic Acid]	>2000	>2000	713 ± 32	2010 ± 10	–	–	–
Ursolic Acid	640 ± 46	763 ± 32	207 ± 32	397 ± 6	–	–	–
O=C(O)[C@H]1OC(Oc2c(-c3ccc(O)c(O)c3)oc3cc(O)cc(O)c3c2=O)[C@H](O)[C@@H](O)[C@@H]1O (stereo partly drawn) [Quercetin-3-O-glucuronide]	>2000	>2000	>2000	>2000	–	–	–
O=c1c(O)c(-c2ccc(O)cc2)oc2cc(O)cc(O)c12 [Kaempferol]	1640 ± 10	1787 ± 42	560 ± 53	773 ± 6	–	–	–
Oleanolic Acid	1077 ± 15	1613 ± 31	190 ± 26	940 ± 35	–	–	–
O=c1oc2c(O)c(O)cc3c(=O)oc4c(O)c(O)cc1c4c23 [Ellagic Acid]	>2000	>2000	38 ± 13	763 ± 32	–	meaningful anti-biofilm activity	not an effective biofilm inhibitor
O=C(O)/C=C/c1ccc(O)c(O)c1 [Caffeic Acid]	>2000	>2000	>2000	>2000	–	–	–
